These results are taken from patent publication US20200323991A1, “PBD CONJUGATES FOR TREATING DISEASES” (ENDOCYTE, INC., priority 2016, published 2020).

Where two headings read alike, the source gives them in different places.

For test [1], the system named is KB cells. The class given is cell-based, human. The settings on record: read-out: IC50 value, 3H-thymidine incorporation. On the procedure: The conjugates described herein were evaluated using an in vitro cytotoxicity assay that predicted the ability of the drug to inhibit the growth of the corresponding targeted cells, such as, but not limited to the following
It is to be understood that the choice of cell type can be made on the basis of the susceptibility of those selected cells to the drug that forms the conjugate, and the relative expression of the cell surface receptor or target antigen. The test conjugates were conjugates of a cell surface receptor or target antigen binding compound and PBD prodrugs, poly-PBD prodrugs, and mixed PBDs, as described herein. The test cells were exposed to varying concentrations of the conjugates, and optionally also in the absence or presence of at least a 100-fold excess of the unconjugated cell surface receptor or target antigen binding compound for competition studies to assess activity as being specific to the cell surface receptor or target antigen.
KB cells were seeded in individual 24-well Falcon plates and allowed to form nearly confluent monolayers overnight in folate free Roswell Park Memorial Institute (FFRPMI)/Heat-Inactivated Fetal Calf Serum (HIFCS). Thirty minutes prior to the addition of folate-conjugate, spent medium was aspirated from all wells and replaced with either fresh FFRPMI or FFRPMI supplemented with 100 μM folic acid. […] Cells were pulsed for 2 h at 37° C., rinsed 4 times with 0.5 mL of medium and then chased in 1 mL of fresh medium up to 72 h. Spent medium was aspirated from all wells and replaced with fresh medium containing 5 μCi/mL of ^3H-thymidine. Following a 2 h incubation at 37° C., cells were washed 3 times with 0.5 mL of PBS and then treated with 0.5 mL of ice-cold 5% trichloroacetic acid per well. After 15 min, the trichloroacetic acid was aspirated and the cells solubilized by the addition of 0.5 mL of 0.25 N sodium hydroxide for 15 min at room temperature. Four hundred and fifty […] of each solubilized sample were transferred to scintillation vials containing 3 mL of Ecolume scintillation cocktail and counted in a liquid scintillation counter. Final results were expressed as the percentage of ^3H-thymidine incorporation relative to untreated controls.
Background: Uptake of a labelled nucleoside into DNA is a usual measure of proliferation.

Test [2] relates to KB tumor. Kind of test: Antitumor activity in large KB tumor model. The class given is in vivo, mice. The settings on record: for KB tumor size compared to untreated control: 0.5 μmol/kg SIW for two weeks. On the procedure: Female Balb/c nu/nu mice were fed ad libitum with folate-deficient chow (Harlan diet #TD01013) for the duration of the experiment. KB tumor cells were inoculated subcutaneously at the right flank of each mouse. Mice were dosed after the tumors reached an average of 100 and 180 mm^3 through the lateral tail vein under sterile conditions in a volume of […] of phosphate-buffered saline (PBS).
Growth of each s.c. tumor was followed by measuring the tumor two times per week. Tumors were measured in two perpendicular directions using Vernier calipers, and their volumes were calculated as 0.5×L×W^2, where L=measurement of longest axis in mm and W=measurement of axis perpendicular to L in mm.

Where [3] appears, read: with excess folate (100 μM folic acid).
Where [4] appears, read: without excess folate, 2 h pulse, chase up to 72 h.
[5] abbreviates: 0.5 μmol/kg, once a week for two weeks.

For `C=C1C[C@H]2C=Nc3cc(OCCCCCOc4cc(N)c(C(=O)N5CC(=C)C[C@H]5C5OCCN5C(=O)OCC(C)(C)SSCCC(=O)NCCNC(=O)CCCCCN5C(=O)CC(SC[C@H](NC(=O)[C@H](CC(=O)O)NC(=O)[C@H](CC(=O)O)NC(=O)[C@H](CCCNC(=N)N)NC(=O)[C@H](CC(=O)O)NC(=O)CC[C@H](NC(=O)c6ccc(NCc7cnc8nc(N)[nH]c(=O)c8n7)cc6)C(=O)O)C(=O)O)C5=O)cc4OC)c(OC)cc3C(=O)N2C1` (stereo partly drawn) [Conjugate 22], the IC50 was 1.4 nM in test [1] (setting [3]) and 0.14 nM in test [1] (setting [4]).

Regarding `C=C1C[C@H]2C=Nc3cc(OCCCCCOc4cc(NC(=O)OCC(C)SSC[C@H](NC(=O)CCOCCOCCOCCOCCNC(=O)[C@H](CC(=O)O)NC(=O)[C@H](CC(=O)O)NC(=O)[C@H](CCCNC(=N)N)NC(=O)[C@H](CC(=O)O)NC(=O)CC[C@H](NC(=O)c5ccc(NCc6cnc7nc(N)[nH]c(=O)c7n6)cc5)C(=O)O)C(=O)O)c(C(=O)N5CC(=C)C[C@H]5/C=N/OC)cc4OC)c(OC)cc3C(=O)N2C1` (stereo partly drawn) [Conjugate 27], the IC50 came to 6.1 nM in test [1] (setting [3]) and 0.091 nM in test [1] (setting [4]).

Turning to `C=C1C[C@H]2C=Nc3cc(OCCCCCOc4cc(NC(=O)OCCSSC[C@H](NC(=O)[C@H](CC(=O)O)NC(=O)[C@H](CC(=O)O)NC(=O)[C@H](CCCNC(=N)N)NC(=O)[C@H](CC(=O)O)NC(=O)CC[C@H](NC(=O)c5ccc(NCc6cnc7nc(N)[nH]c(=O)c7n6)cc5)C(=O)O)C(=O)O)c(C(=O)N5CC(=C)C[C@H]5/C=N/OC)cc4OC)c(OC)cc3C(=O)N2C1` [Conjugate 16], in test [1] (setting [3]), the IC50 amounted to 5 nM. In addition, the IC50 in test [1] (setting [4]) was determined as 0.07 nM. Moreover, in test [2] (setting [5]), the complete responses is on record as 40% and the cures is 60%.

As for `C=C1C[C@H]2C=Nc3cc(OCCCCCOc4cc(NC(=O)OCCCSSC[C@H](NC(=O)[C@H](CC(=O)O)NC(=O)[C@H](CC(=O)O)NC(=O)[C@H](CCCNC(=N)N)NC(=O)[C@H](CC(=O)O)NC(=O)CC[C@H](NC(=O)c5ccc(NCc6cnc7nc(N)[nH]c(=O)c7n6)cc5)C(=O)O)C(=O)O)c(C(=O)N5CC(=C)C[C@H]5/C=N/OC)cc4OC)c(OC)cc3C(=O)N2C1` [Conjugate 31], the IC50 in test [1] (setting [4]) was determined as 0.647 nM.

For `C=C1C[C@H]2C=Nc3cc(OCCCCCOc4cc(N)c(C(=O)N5CC(=C)C[C@H]5C5OCCN5C(=O)OCC(C)SSC[C@H](NC(=O)[C@H](CC(=O)O)NC(=O)[C@H](CC(=O)O)NC(=O)[C@H](CCCNC(=N)N)NC(=O)[C@H](CC(=O)O)NC(=O)CC[C@H](NC(=O)c5ccc(NCc6cnc7nc(N)[nH]c(=O)c7n6)cc5)C(=O)O)C(=O)O)cc4OC)c(OC)cc3C(=O)N2C1` (stereo partly drawn) [Conjugate 4], the IC50 in test [1] (setting [3]) came to 6 nM; in test [1] (setting [4]), 0.049 nM. In test [2] (setting [5]), this molecule registered a cures of 100%.

As to `C=C1C[C@H]2C=Nc3cc(OCCCCCOc4cc(NC(=O)OCC(C)(C)SSCCC(=O)NCCNC(=O)CCOCCOCCOCCOCCOCCOCCOCCOCCOCCOCCOCCOCCNC(=O)CCN5C(=O)CC(SC[C@H](NC(=O)[C@H](CC(=O)O)NC(=O)[C@H](CC(=O)O)NC(=O)[C@H](CCCNC(=N)N)NC(=O)[C@H](CC(=O)O)NC(=O)CC[C@H](NC(=O)c6ccc(NCc7cnc8nc(N)[nH]c(=O)c8n7)cc6)C(=O)O)C(=O)O)C5=O)c(C(=O)N5CC(=C)C[C@H]5/C=N/OC)cc4OC)c(OC)cc3C(=O)N2C1` (stereo partly drawn) [Conjugate 20], the IC50 in test [1] (setting [3]) was 0.7 nM; in test [1] (setting [4]), 0.04 nM. Also, the “KB tumor size compared to untreated control” value in test [2] is “decreased KB tumor size”.

For the molecule `C=C1C[C@H]2C=Nc3cc(OCCCCCOc4cc(NC(=O)OCCSSC(C)(C)[C@H](NC(=O)[C@H](CC(=O)O)NC(=O)[C@H](CC(=O)O)NC(=O)[C@H](CCCNC(=N)N)NC(=O)[C@H](CC(=O)O)NC(=O)CC[C@H](NC(=O)c5ccc(NCc6cnc7nc(N)[nH]c(=O)c7n6)cc5)C(=O)O)C(=O)O)c(C(=O)N5CC(=C)C[C@H]5/C=N/OC)cc4OC)c(OC)cc3C(=O)N2C1` [Conjugate 32], the IC50 in test [1] (setting [3]) was determined as 57 nM; in test [1] (setting [4]), 2 nM.

As for `C=C1C[C@H]2[C@H](O)N(C(=O)OCC(C)SSC[C@H](CC(=O)[C@H](CC(=O)O)NC(=O)[C@H](CC(=O)O)NC(=O)[C@H](CCCNC(=N)N)NC(=O)[C@H](CC(=O)O)NC(=O)CC[C@H](NC(=O)c3ccc(NCc4cnc5nc(N)[nH]c(=O)c5n4)cc3)C(=O)O)C(=O)O)c3cc(OCCCCCOc4cc5c(cc4OC)C(=O)N4CC(=C)C[C@H]4[C@H](O)N5C(=O)OCC(C)SSC[C@H](NC(=O)[C@H](CC(=O)O)NC(=O)[C@H](CC(=O)O)NC(=O)[C@H](CCCNC(=N)N)NC(=O)[C@H](CC(=O)O)NC(=O)CC[C@H](NC(=O)c4ccc(NCc5cnc6nc(N)[nH]c(=O)c6n5)cc4)C(=O)O)C(=O)O)c(OC)cc3C(=O)N2C1` (stereo partly drawn) [Conjugate 2], the IC50 in test [1] (setting [3]) was found to be 16 nM; in test [1] (setting [4]) it was 0.14 nM. For the same molecule, in test [2] (setting [5]), the cures was 100%.

Take `C=C1C[C@H]2C=Nc3cc(OCCCCCOc4cc(NC(=O)OCCSSC[C@@H](C)NC(=O)CCOCCOCCOCCOCCNC(=O)[C@H](CC(=O)O)NC(=O)[C@H](CC(=O)O)NC(=O)[C@H](CCCNC(=N)N)NC(=O)[C@H](CC(=O)O)NC(=O)CC[C@H](NC(=O)c5ccc(NCc6cnc7nc(N)[nH]c(=O)c7n6)cc5)C(=O)O)c(C(=O)N5CC(=C)C[C@H]5/C=N/OC)cc4OC)c(OC)cc3C(=O)N2C1` [Conjugate 26]: the IC50 in test [1] (setting [3]) was 1.6 nM; in test [1] (setting [4]) it was 0.028 nM.

Regarding `C=C1CC(/C=N/OC)N(C(=O)c2cc(OC)c(OCCCCCOc3cc4c(cc3OC)C(=O)N3CC(=C)C[C@H]3C=N4)cc2NC(=O)OCC(C)(C)SSCCC(=O)NCCNC(=O)CCN2C(=O)CC(SC[C@H](NC(=O)[C@H](CC(=O)O)NC(=O)[C@H](CC(=O)O)NC(=O)[C@H](CCCNC(=N)N)NC(=O)[C@H](CC(=O)O)NC(=O)CC[C@H](NC(=O)c3ccc(NCc4cnc5nc(N)[nH]c(=O)c5n4)cc3)C(=O)O)C(=O)O)C2=O)C1` (stereo partly drawn) [Conjugate 18], the IC50 in test [1] (setting [3]) amounted to 2 nM; in test [1] (setting [4]), 0.065 nM. In addition, in test [2], the “KB tumor size compared to untreated control” value was “decreased KB tumor size”.

Consider `C=C1C[C@H]2C=Nc3cc(OCCCCCOc4cc(N)c(C(=O)N5CC(=C)C[C@H]5C5OCCN5C(=O)OCC(C)(C)SSCCC(=O)NCCNC(=O)CCOCCOCCOCCOCCOCCOCCOCCOCCOCCOCCOCCOCCOCCOCCOCCOCCOCCOCCOCCOCCOCCOCCOCCOCCOCCOCCOCCOCCOCCOCCOCCOCCOCCOCCOCCOCCNC(=O)CCN5C(=O)CC(SC[C@H](NC(=O)[C@H](CC(=O)O)NC(=O)[C@H](CC(=O)O)NC(=O)[C@H](CCCNC(=N)N)NC(=O)[C@H](CC(=O)O)NC(=O)CC[C@H](NC(=O)c6ccc(NCc7cnc8nc(N)[nH]c(=O)c8n7)cc6)C(=O)O)C(=O)O)C5=O)cc4OC)c(OC)cc3C(=O)N2C1` (stereo partly drawn) [Conjugate 7], for which the IC50 in test [1] (setting [3]) is 5 nM; in test [1] (setting [4]), 0.13 nM. The molecule further gave a cures in test [2] (setting [5]) of 100%.

Consider `C=C1C[C@H]2C=Nc3cc(OCCCCCOc4cc(N)c(C(=O)N5CC(=C)C[C@H]5C5OCCN5C(=O)OCC(C)(C)SSCCC(=O)NCCNC(=O)CCOCCOCCOCCOCCOCCOCCOCCOCCOCCOCCOCCOCCNC(=O)CCN5C(=O)CC(SC[C@H](NC(=O)[C@H](CC(=O)O)NC(=O)[C@H](CC(=O)O)NC(=O)[C@H](CCCNC(=N)N)NC(=O)[C@H](CC(=O)O)NC(=O)CC[C@H](NC(=O)c6ccc(NCc7cnc8nc(N)[nH]c(=O)c8n7)cc6)C(=O)O)C(=O)O)C5=O)cc4OC)c(OC)cc3C(=O)N2C1` (stereo partly drawn) [Conjugate 8], for which the IC50 in test [1] (setting [3]) amounted to 0.3 nM; in test [1] (setting [4]), 0.055 nM. For the same molecule, the cures in test [2] (0.2 μmol/kg, once a week for two weeks) came to 100%.

For the molecule `C=C1C[C@H]2C=Nc3cc(OCCCCCOc4cc5c(cc4OC)C(=O)N4CC(=C)C[C@H]4C(O)N5C(=O)OCC(C)(C)SSCCC(=O)NCCNC(=O)CCOCCOCCOCCOCCNC(=O)CCN4C(=O)CC(SC[C@H](NC(=O)[C@H](CC(=O)O)NC(=O)[C@H](CC(=O)O)NC(=O)[C@H](CCCNC(=N)N)NC(=O)[C@H](CC(=O)O)NC(=O)CC[C@H](NC(=O)c5ccc(NCc6cnc7nc(N)[nH]c(=O)c7n6)cc5)C(=O)O)C(=O)O)C4=O)c(OC)cc3C(=O)N2C1` (stereo partly drawn) [Conjugate 24], the IC50 in test [1] (setting [3]) amounted to 1.8 nM; in test [1] (setting [4]) it was 0.079 nM.
